pKi: −log10 of the molar value.
What follows are compounds tested against 5-hydroxytryptamine receptor 6 (Homo sapiens, UniProt P50406) (assay: Displacement of [3H]-lysergic acid diethylamine from human recombinant 5-HT6 receptor).
5-hydroxytryptamine receptor 6, sequence (P50406 whole entry): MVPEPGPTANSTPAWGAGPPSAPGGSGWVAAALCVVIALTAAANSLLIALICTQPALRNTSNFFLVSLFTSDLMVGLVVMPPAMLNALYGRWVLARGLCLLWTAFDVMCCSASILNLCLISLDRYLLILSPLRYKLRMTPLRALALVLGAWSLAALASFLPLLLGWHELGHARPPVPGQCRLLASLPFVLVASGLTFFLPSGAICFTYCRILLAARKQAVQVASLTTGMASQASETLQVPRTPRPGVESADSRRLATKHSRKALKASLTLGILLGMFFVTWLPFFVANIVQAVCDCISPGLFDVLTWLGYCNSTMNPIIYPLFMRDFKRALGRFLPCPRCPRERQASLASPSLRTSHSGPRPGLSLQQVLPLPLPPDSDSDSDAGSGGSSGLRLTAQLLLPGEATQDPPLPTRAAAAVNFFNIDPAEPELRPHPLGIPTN

pKi	Structure (SMILES)
> 8.00	CCOc1ccc(S(=O)(=O)Nc2cccc(COC)c2)cc1N1CCNCC1
> 7.00	COCc1ccccc1NS(=O)(=O)c1ccc(C)c(N2CCN(C)CC2)c1
> 8.00	COCc1cccc(NS(=O)(=O)c2ccc(OC)c(N3CCN(C)CC3)c2)c1
> 8.00	CCOc1ccc(S(=O)(=O)Nc2ccccc2COC)cc1N1CCNCC1
> 7.00	COCc1cccc(NS(=O)(=O)c2ccc(C)c(N3CCN(C)CC3)c2)c1
> 8.00	CCOCc1cccc(NS(=O)(=O)c2ccc(OC)c(N3CCNCC3)c2)c1
> 8.00	COc1ccc(S(=O)(=O)Nc2cccc(COCC(F)(F)F)c2)cc1N1CCNCC1
> 7.00	COCc1cccc(N(C)S(=O)(=O)c2ccc(OC)c(N3CCNCC3)c2)c1
> 8.00	COCc1ccccc1NS(=O)(=O)c1ccc(OC)c(N2CCN(C)CC2)c1
> 8.00	CCOc1ccc(S(=O)(=O)Nc2cccc(COC)c2)cc1N1CCN(C)CC1
> 8.00	CCOc1ccc(S(=O)(=O)Nc2ccccc2COC)cc1N1CCN(C)CC1
> 7.70	COCc1cccc(NS(=O)(=O)c2ccc(OC)c(N3CCCNCC3)c2)c1

Structure (SMILES)	pKi
COCc1ccccc1NS(=O)(=O)c1ccc(OC)c(N2CCNCC2)c1	> 8.00
COCc1ccc(NS(=O)(=O)c2ccc(OC)c(N3CCNCC3)c2)cc1	> 7.00
COCc1ccccc1NS(=O)(=O)c1ccc(C)c(N2CCNCC2)c1	> 7.00
COCc1cccc(NS(=O)(=O)c2ccc(C)c(N3CCNCC3)c2)c1	> 8.00
COCc1cccc(NS(=O)(=O)c2ccc(OC)c(N3CCNCC3)c2)c1	> 8.00
COc1ccc(S(=O)(=O)Nc2cccc(C(C)OC)c2)cc1N1CCNCC1 (stereo not drawn)	> 7.70

Source: ChEMBL document CHEMBL2150919, “Benzenesulfonyl and Benzenesulfonamide as Modulators of the 5-HT6 Receptor: Patent Highlight” (ACS Med Chem Lett, 2012)
